The target of experiment [1] is T1, 3β-hydroxysterol-Δ8,7-isomerase (D8D7I) (Homo sapiens, UniProt Q15125).
T1 construct: endogenous in cells; host or cells: B16F10 (murine) and SKMEL-28 (human) melanoma cells
The experiment can be described thus: D8D7I inhibition shown by Δ8-sterol accumulation in melanoma cells. Type of experiment: cell-based. The note with it: B16F10 and SKMEL-28, 2.5 µM DDA, 48 h; accumulation of zymostenol and 8-dehydrocholesterol. On the procedure: Sterols in cell homogenates were extracted with a solvent mixture containing chloroform/methanol 2/1 (v/v) spiked with epicoprostanol as the internal standard. Lipids were partitioned in chloroform after the addition of saline and saponified by methanolic potassium hydroxide (0.5 N, 60 °C, 15 min). The fatty acids released were methylated with BF3-methanol (12%, 60 °C, 15 min) to not interfere with the chromatography of sterols. The sterols were re-extracted in hexane and silylated, as described previously. […] Sterols were identified by the fragmentogram in the scanning mode and quantified by selective monitoring of the specific ions after normalization with the internal standard epicoprostanol and calibration with weighed standards.
Supplementary Fig. 2. DD A induce d th e accum ulation of cholestero l precursors in m elanom a cells. a Quantification of sterol accum ulation in cells after 48 h tr eatm ent with or without 2.5 µM DDA. […]
accum ulation. e Representative EM im ages of cells treated for 24 h with solvent vehicle (panels 1- 2) or 2.5 µM DDA (panels 3- 4). […] Cells were treated with solvent vehicle (control) or 2.5 µM DDA for 24 h with or without 1 µ M Baf A1, the n stained with MDC and obser ved by fluorescence m icroscopy. […]

Experiment [2] relates to B16F10 cells. Put plainly: Immunoblot densitometry (LC3-II). In kind it is cell-based, mouse. As to conditions: 2.5 µM DDA, 24 h. On the procedure:
Immunoblotting was carried out as described previously. Proteins were separated on SDS-PAGE gels, electro-transferred onto polyvinylidene difluoride membranes and incubated overnight at 4 °C with the following antibodies: anti-Atg3, anti-Atg5 (D1G9), anti-Atg7 (D12B11), anti-Beclin (D40C5), anti-caspase-3 (Cell Signaling), anti-Bcl-2 (Millipore), anti-Bax (Millipore), anti-LC3 (Sigma-Aldrich), anti-LXRα (SantaCruz), anti-LXRβ (SantaCruz), anti-Nur77 (Active motif), anti-NOR1 (R&D systems), anti-PARP (Cell Signaling), anti-Vps34 (Cell Signaling), or anti-Actin (Millipore). For visualization, an ECL plus kit (Amersham Biosciences) was used, and chemiluminescence was measured by autoradiography (Supplementary Fig. 9). Specific bands were quantified with ImageQuant software.

For another experiment, the system named is SKMEL-28 cells. Put plainly: Clonogenicity (colony formation) inhibition. Type of experiment: cell-based. The note with it: Homo sapiens, SK-MEL-28; SKMEL-28 (H); 72 h; read-out: Clono IC50. The text has this:
(§1) Supplementary Fig. 1. a DDA inhibited m elanom a colony form ation. Melanom a cells were […]
(§2) a 0.5% solution of crystal violet in water and analyzed by microscopy. Images are representative of 5 independent experiments. b Evaluation of DDA-induced cytotoxicity (cytotox) and clonogenicity (clono) inhibition in a subset of human (H) and mouse (M) m elanom a cell lines. T he BRaf status in m elanom a cells lines is shown. […]

The test system of experiment [3] is B16F10 cells. The experiment can be described thus: Clonogenicity (colony formation) inhibition. Type of experiment: cell-based. The note with it: Mus musculus, B16-F10; B16F10 (M); 72 h; read-out: Clono IC50.
From the text: as §1, §2

Several values for one entry are separate records, joined by “and”; a condition that tells them apart may be missing. Equal values may be shown once.

T1 sequence (Q15125 whole entry, stated change not applied): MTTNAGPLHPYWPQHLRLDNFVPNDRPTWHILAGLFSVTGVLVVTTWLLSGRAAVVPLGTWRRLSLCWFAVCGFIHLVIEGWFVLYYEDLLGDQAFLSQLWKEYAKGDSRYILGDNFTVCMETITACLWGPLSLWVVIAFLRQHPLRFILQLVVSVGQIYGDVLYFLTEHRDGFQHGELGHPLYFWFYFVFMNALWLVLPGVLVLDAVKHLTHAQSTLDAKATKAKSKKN

In the case of `CC(C)CCC[C@@H](C)[C@H]1CC[C@H]2[C@@H]3C[C@@H](NCCc4cnc[nH]4)[C@@]4(O)C[C@@H](O)CC[C@]4(C)[C@H]3CC[C@]12C` [DDA, Dendrogenin A], the D8D7I inhibition result in experiment [1] is given as “inhibited D8D7I”. In addition, the “LC3-II protein, densitometry” value in the experiment on B16F10 cells [2] (B16F10 siATG7) was 0.8; with B16F10 cells [2] (B16F10 siBECN1), 1.3; with B16F10 cells [2] (B16F10 siNOR1 + siNur77), 0.8; in the experiment with B16F10 cells [2] (B16F10 siNOR1), 0.8; in the experiment with B16F10 cells [2] (B16F10 siNur77), 1.1; in the experiment with B16F10 cells [2] (B16F10 siSC), 2.5 and 1.8 and 2.3. In the experiment with B16F10 cells [2] (B16F10 siVPS34), the “LC3-II protein, densitometry” value is 1.9. Also, the figures for the IC50 in the experiment on SKMEL-28 cells and in the experiment on B16F10 cells [3] were 1.4 ± 0.6 µM and 1.2e-06 ± 3e-07 M, respectively.

For the origin of these results see article PMC5712521, “Dendrogenin A drives LXR to trigger lethal autophagy in cancers” (Nature Communications, 2017).
